According to patent US9265845B2, “Imaging methods using engineered integrin binding peptides” (The Board of Trustees of the Leland Stanford Junior …, priority 2006, dated 2016):
Entries after “also recorded” stand apart in the source; their conditions may differ.

What was measured:
α5β1 integrin = α5β1 integrin (Homo sapiens, UniProt P05556+P08648); experiment: Competition of 125I-echistatin to detergent-solubilized plate-coated integrin; type: binding; settings: 0.06 nM 125I echistatin, 5 nM and 50 nM peptide
Description: (§1) FIG. 10A through FIG. 10D is a series of histograms showing binding specificities to integrins αvβ3, αvβ5, α5β1, and αiibβ3 for engineered EETI-RGD peptides compared to controls. Error bars represent experiments performed in triplicate. Competition binding of 0.06 nM ^125I echistatin with 5 nM (black bars) and 50 nM (grey bars) unlabeled peptide to plate-coated integrins was measured. […] The engineered peptides have very little binding to αiibβ3 integrin.
(§2) This was done by competition of ^125I-echistatin to detergent-solubilized integrin receptors coated onto microtiter plates (see FIG. 10). […] This is consistent with previous studies which have shown αv integrin receptors can accommodate a wide range of RGD-containing cyclic structures. […] However, since α5β1 integrins are expressed on many tumors and are all involved in mediating angiogenesis and metastasis, a broad spectrum agent that targets all three integrins will be useful for diagnostic and therapeutic applications. With the exception of echistatin, all of the RGD-containing peptides bound weakly to the αiibβ3 receptor, showing the specificity of the present peptides for the αv and α5-containing integrin heterodimers. This characteristic is valuable for molecular imaging and therapeutic applications, since binding to αiibβ3 on platelet cells prevents blood clotting and would lead to non-specific in vivo effects.

αvβ3 integrin = αvβ3 integrin (Homo sapiens, UniProt P05106+P06756); experiment: as above; type: binding; settings: 0.06 nM 125I echistatin, 5 nM and 50 nM peptide
Description: as §1, §2

αvβ5 integrin = αvβ5 integrin (Homo sapiens, UniProt P06756+P18084); experiment: as above; type: binding; settings: 0.06 nM 125I echistatin, 5 nM and 50 nM peptide
Description: as §1, §2

U87MG glioblastoma cells [1] = experiment: Blocking of U87MG cell adhesion to vitronectin-coated plates; type: cell-based; settings: vitronectin-coated plates
From the text: (§3) The present engineered peptides may be used in a variety of ways. If the peptides are attached to a surface, they may be used to attract/recruit cells to grow on the surface. For example, the present peptides may be applied to prosthetic devices, implants, bone grafts, and the like to promote tissue growth and healing at the site. They may be attached to culture dishes and promote attachment and differentiation of cells in culture. In addition, the present engineered peptides may be used to modulate cell binding to selected integrins such as α5β1, αvβ3 and αvβ5, particularly αvβ3, by adding the peptides to a cell culture to prevent cells expressing these integrins from adhering to a substrate. […] Also, the present 2.5F, 2.5D and 1.5B peptides were tested for blocking adhesion of U87MG glioblastoma cells to fibronectin-coated plates.
(§4) In another experiment, the ability of engineered knottin peptides to block U87MG cell adhesion to vitronectin- and fibronectin-coated microtiter plates. Vitronectin is a natural ligand for several integrins, including αvβ3 and αvβ5. The RGD-containing peptides were all able to inhibit U87MG cell adhesion to vitronectin-coated plates in a dose-responsive manner. […] Fibronectin also binds to several integrins, (including αvβ3 and α5β1), but the α5β1 integrin receptor is generally selective for fibronectin.
Whether the engineered AgRP peptides could block vitronectin-mediated adhesion to the U87MG cells was tested using an analogous assay. […] The AgRP peptides may not effectively block U87MG adhesion compared to the K562-αvβ3 cells because the αvβ5 integrins co-expressed on the surface of the U87MG cells could also contribute to vitronectin-mediated adhesion and compensate for the loss of αvβ3 integrin function.

U87MG glioblastoma cells [2] = experiment: Blocking of U87MG cell adhesion to fibronectin-coated plates; type: cell-based
From the text: as §3, §4

U87MG tumor = experiment: MicroPET imaging and biodistribution of radiolabeled peptides in U87MG tumor-bearing mice; type: in vivo, mouse
Description: MicroPET imaging of tumor-bearing mice is performed on a microPET R4 rodent model scanner (Concorde Microsystems Inc, Knoxyille, Tenn.). U87MG tumor bearing mice are injected with PET imaging agent via the tail vein. At various times post injection, the mice are anesthetized with 2% isoflurane, and 10 min static scans are obtained. Images are reconstructed by a two-dimensional ordered expectation maximum subset algorithm as previously described. Regions of interest (ROI) are drawn over the tumor on decay corrected whole body images and ROI derived % injected dose per gram of tissue is determined. Statistical analysis is performed using the student's t-test for unpaired data. A 95% confidence level is used to determine statistical significance.
Female athymic mice bearing U87MG tumors were injected with 80-150 μCi of ^64Cu-DOTA-knottin 2.5D or 7-9 μCi of [^18F]-FB-E[knottin 2.5D]. Static images were taken at various timepoints post injection using a microPET R4 rodent model scanner (Concorde Microsystems Inc, Knoxyille, Tenn.). […] Uptake was also observed in the kidney as both probes cleared through the bladder.
Mice are sacrificed by exanguinations at various time points postinjection. Blood, tumor and the major organs and tissues are collected, wet-weighed and measured in a γ-counter. The % injected dose per gram is determined for each sample. For each mouse, radioactivity of the tissue samples is calibrated against a known aliquot of the injectate. Values are reported as the mean±standard deviation.
The following Table 10 quantifies the ^64Cu-DOTA knottin uptake by direct tissue sampling of the mice up to 24 hours post injection and is reported in % ID (percent injected dose)/gram. Similar results were obtained with [^18F]-FB-E[knottin 2.5D].
A U87MG glioblastoma xenograft mouse model was used. U87MG cells were maintained at 37° C. in a humidified atmosphere containing 5% CO2 in Dulbecco's modified eagle medium, 10% heat-inactivated fetal bovine serum, and penicillin-streptomycin (all from Invitrogen). Animal procedures were carried out according to a protocol by Stanford University Administrative Panels on Laboratory Animal Care. Female athymic nude mice (nu/nu), obtained at 4-6 weeks of age (Charles River Laboratories, Inc.), were injected subcutaneously in the right or left shoulder with 2×10^7 U87MG glioblastoma cells suspended in 100 μL of PBS. Mice were used for in vivo imaging studies when their tumors reached approximately 8 to 10 millimeters in diameter.
U87MG tumor-bearing mice (n=3 or more for each probe) were injected with ˜100 μCi of ^64Cu-DOTA-conjugated peptides via the tail vein and imaged with a microPET R4 rodent model scanner (Siemens Medical) using 3 or 5 min static scans. […] Images were reconstructed by a two dimensional ordered expectation maximum subset algorithm and calibrated as previously described (Wu, Y, Zhang, X, Xiong, Z, et al. microPET imaging of glioma integrin {alpha}v{beta}3 expression using (64)Cu-labeled tetrameric RGD peptide. J Nucl Med 2005; 46:1707-18). ROIs were drawn over the tumor on decay-corrected whole body images using ASIPro VM software (Siemens Medical). The mean counts per pixel per minute were obtained from the ROI and converted to counts per milliliter per minute with a calibration constant. ROIs were converted to counts/g/min, and % ID/g values were determined assuming a tissue density of 1 g/mL. No attenuation correction was performed.

Compound | binding to α5β1 integrin, in words (α5β1 integrin) | binding to αvβ3 integrin, in words (αvβ3 integrin) | binding to αvβ5 integrin, in words (αvβ5 integrin) | blocking of U87MG cell adhesion to vitronectin, in words (U87MG glioblastoma cells [1]) | blocking of U87MG cell adhesion to fibronectin, in words (U87MG glioblastoma cells [2]) | liver uptake, in words (U87MG tumor; 64Cu-DOTA-labeled peptides, compared to 64Cu-DOTA-c(RGDyK)) | tumor/blood ratios, in words (U87MG tumor; PET studies, 4 h post injection, compared to 2.5D) | PET tumor targeting / imaging signal, in words (U87MG tumor; radiolabeled peptides, U87MG tumor-bearing mice)
CC(C)C[C@@H]1NC(=O)[C@@H]2CSSC[C@@H](C(=O)NCC(=O)O)NC(=O)[C@H](Cc3ccccc3)NC(=O)CNC(=O)[C@H](CC(N)=O)NC(=O)[C@@H]3CCCN3C(=O)CNC(=O)[C@@H]3CSSC[C@H](NC(=O)[C@H]([C@@H](C)O)NC(=O)[C@H](CC(C)C)NC(=O)[C@@H]4CCCN4C(=O)[C@@H]4CCCN4C(=O)[C@H](CC(N)=O)NC(=O)[C@H](CC(=O)O)NC(=O)CNC(=O)[C@H](CCCNC(=N)N)NC(=O)[C@@H]4CCCN4C(=O)[C@H](CCCNC(=N)N)NC(=O)[C@@H]4CCCN4C(=O)[C@@H](NC(=O)CN)CSSC[C@H](NC(=O)CNC(=O)[C@H](C)NC1=O)C(=O)N[C@@H](C(C)C)C(=O)N3)C(=O)N[C@@H](CO)C(=O)N[C@@H](CCC(N)=O)C(=O)N[C@@H](CC(=O)O)C(=O)N[C@@H](CO)C(=O)N[C@@H](CC(=O)O)C(=O)N2 [2.5F] | binds with strong affinity | strongest levels of binding | strongest levels of binding | blocked adhesion better than controls | blocked adhesion; also recorded: able to block | lower liver uptake | much higher tumor/blood ratios | slower tumor washout compared to 2.5D
CC[C@H](C)[C@@H]1NC(=O)[C@H]([C@@H](C)O)NC(=O)[C@@H](NC(=O)CN)CSSC[C@@H]2NC(=O)CNC(=O)[C@H](C)NC(=O)[C@H](CC(C)C)NC(=O)[C@@H]3CSSC[C@@H](C(=O)NCC(=O)O)NC(=O)[C@H](Cc4ccccc4)NC(=O)CNC(=O)[C@H](CC(N)=O)NC(=O)[C@@H]4CCCN4C(=O)CNC(=O)[C@H](CSSC[C@H](NC(=O)[C@H](CCC(=O)O)NC(=O)[C@H](CO)NC(=O)[C@@H]4CCCN4C(=O)[C@H](C)NC(=O)[C@H](Cc4c[nH]c5ccccc45)NC(=O)[C@H](CC(=O)O)NC(=O)CNC(=O)[C@H](CCCNC(=N)N)NC(=O)CNC1=O)C(=O)N[C@@H](CO)C(=O)N[C@@H](CCC(N)=O)C(=O)N[C@@H](CC(=O)O)C(=O)N[C@@H](CO)C(=O)N[C@@H](CC(=O)O)C(=O)N3)NC(=O)[C@H](C(C)C)NC2=O [1.5B] | only minimal binding | strongest levels of binding | strongest levels of binding |  | only echistatin and polypeptide 2.5F blocked adhesion |  |  | 
